Test results taken from publication PMC3471066, “The Inhibitory Effect of Prunella vulgaris L. on Aldose Reductase and Protein Glycation” (Journal of Biomedicine and Biotechnology, 2012).
Read-outs that look alike come from different tables or passages of the source. Blank lines part the entries; values can stand above or below the molecule they belong to.

Key:
[1] = biological target: T1, rat lens aldose reductase (rAR) (Rattus norvegicus, UniProt P07943); test: Rat lens aldose reductase (rAR) inhibition, NADPH decrease at 340 nm; format: biochemical
T1 construct: from tissue; host or cells: lens of Sprague-Dawley rats (homogenate supernatant)

[2] = biological target: T2, human recombinant aldose reductase (rhAR) (Homo sapiens, UniProt P15121); test: Human recombinant aldose reductase (rhAR) inhibition; format: biochemical
T2 construct: purchased Wako Pure Chemical Industries (Osaka, Japan)

[3] = biological target: T2, human recombinant aldose reductase (rhAR); test: Kinetics of rhAR inhibition, Lineweaver-Burk plots; format: biochemical; details: DL-glyceraldehyde 0.1-1 mM
Experimental: Reaction mixtures consisted of 0.1 M potassium phosphate, 0.16 mM NADPH, 2 mM of recombinant human aldose reductase (rhAR) with varied concentrations of substrate DL-glyceraldehyde and AR inhibitor in a total volume of 200 μL. Concentrations were ranged from 0.1 to 1 mM for DL-glyceraldehyde, and from 0.1 to 1 mM for active compound. Recombinant human aldose reductase activity was assayed spectrophotometrically by measuring the decrease in absorption of NADPH at 340 nm after substrate addition using Bio Tek Power Wave XS spectrophotometer (Bio Tek Instruments, VT, USA).

[4] = test system: rat lenses; test: Lens culture and intracellular galactitol measurement; format: cell-based; details: for Galactitol content in rat lens: 30 mM galactose, 5 μg/mL compound, 6 d; for inhibition at 5 µg/mL: Rattus norvegicus, 5 μg/mL, read-out: inhibition of galactitol accumulation in rat lenses
Experimental: Lenses isolated from 10-week-old male rats were cultured for 6 d in TC-199 medium that contained 15% fetal bovine serum 100 units/mL penicillin and 0.1 mg/mL streptomycin under sterile conditions in an atmosphere of 5% CO2 and 95% air at 37°C. Samples were dissolved in dimethyl sulfoxide. The lenses were divided into 5 groups and cultured in medium containing 5 mM glucose, 30 mM galactose, and rosmarinic acid or caffeic acid ethylene ester. Each lens was placed in well containing 1.0 mL of medium. Galactitol was determined by HPLC after its derivatization by reaction with benzoic acid to a fluorescent compound [20].

[5] = test system: rat erythrocyte; test: Blood culture (erythrocyte) and intracellular galactitol measurement; format: cell-based; details: for Rat erythrocyte galactitol content: 30 mM galactose, 5 μg/mL compound, 3 h; for inhibition at 5 µg/mL: Rattus norvegicus, Erythrocyte, 5 μg/mL, read-out: inhibition of galactitol accumulation in rat erythrocyte
Experimental: Blood sample was collected in heparin-containing polypropylene tube from 10-week-old male rats. For sugar and sugar alcohol analysis, erythrocytes from heparinized blood were separated from the plasma and buffy coat by centrifuging at 2000×g for 10 min. The cells were washed thrice with normal saline (0.9% NaCl) at 4°C. In the final washing, the cells were centrifuged at 2000 ×g for 10 min to obtain a consistently packed cell preparation. The packed cells (1 mL) were then incubated in a Krebs-Ringer bicarbonate buffer (pH 7.4) containing 30 mM galactose in the presence or absence of samples at 37°C in 5% CO2 for 3 h. The erythrocytes were washed with cold saline by centrifuging at 2000 ×g for 10 min, precipitated by adding 6% of cold perchloric acid (3 mL), and centrifuged again at 2000 ×g for 10 min. The supernatant was neutralized with 2.5 M K2CO3 at 4°C and used for galactitol determination. HPLC analysis for sugar and sugar alcohol in blood was performed with this supernatant of red blood cell homogenate after being benzoylated.

[6] = Effects on AGEs formation (BSA-methylglyoxal, fluorescence); format: biochemical
Experimental: The modified procedure of Lee et al. was followed. Bovine serum albumin (10 mg/mL) was incubated with 5 mM methylglyoxal in sodium phosphate buffer (100 mM; pH 7.4). […] All of the reagent and samples were sterilized by filtration through 0.2 μM membrane filters, and the mixture was incubated at 37°C for 7 days. The fluorescence intensity was measured at an excitation wavelength of 330 nm and an emission wavelength of 410 nm with a LS50B fluorescence spectrometer (Perkin-Elmer Ltd., USA). Aminoguanidine was also tested as a known inhibitor.

[7] = ABTS•+ assay
Experimental: The method of Re et al. was used with slight modification. The ABTS diammonium salt (2 mM) and potassium persulfate (3.5 mM) were mixed and diluted in distilled water kept in the dark at room temperature for 24 h before use. After addition of ABTS^•+ solution to 10 μL of antioxidant compounds were recorded at after 10 min reaction. The percentage inhibition of absorbance at 750 nm is calculated and potted as a function of concentration of antioxidants. Trolox was used as positive control.

- IC50 ([1]; read-out: rAR IC50): 3.2 ± 0.55 µM
- IC50 [2]: 12.6 ± 0.32 µM
- inhibition type of rhAR [3]: noncompetitive inhibition
- inhibition type of rhAR ([3]; listed as caffeic acid ethylene ester (5)): noncompetitive
- IC50 [6]: 33.2 ± 0.54 µM
- IC50 [7]: 10.5 ± 0.28 µM
SMILES: C=COC(=O)/C=C/c1ccc(O)c(O)c1 [Compound 5, caffeic acid ethylene ester]
- Galactitol content in rat lens [4]: 653.76 ± 4.68 μg/lens wet weight (g)
- inhibition at 5 µg/mL [4]: ~22.5%
- Rat erythrocyte galactitol content [5]: 15.89 ± 0.41 µM
- inhibition at 5 µg/mL [5]: ~31.7%
- Inhibition (%) of AGEs ([6]; 1.96 μg/mL): 9.00 ± 0.43%
- Inhibition (%) of AGEs ([6]; 4.9 μg/mL): 33.94 ± 0.94%
- Inhibition (%) of AGEs ([6]; 9.8 μg/mL): 74.81 ± 1.41%
- Inhibition (%) of ABTS•+ ([7]; 0.33 μg/mL): 13.00 ± 0.13%
- Inhibition (%) of ABTS•+ ([7]; 1.67 μg/mL): 50.17 ± 1.75%
- Inhibition (%) of ABTS•+ ([7]; 3.33 μg/mL): 84.68 ± 1.41%

SMILES: O=C(O)c1ccc(O)c(O)c1 [Compound 2, protocatechuic acid]
- IC50 [7]: 11.6 ± 0.22 µM
- Inhibition (%) of ABTS•+ ([7]; 0.33 μg/mL): 14.90 ± 0.34%
- Inhibition (%) of ABTS•+ ([7]; 1.67 μg/mL): 53.79 ± 0.92%
- Inhibition (%) of ABTS•+ ([7]; 3.33 μg/mL): 93.42 ± 0.58%

SMILES: O=c1c(O)c(-c2ccc(O)c(O)c2)oc2cc(O)cc(O)c12 [Quercetin, quercetin, reference compound]
- inhibition at 1 µg/mL ([1]; 1 μg/mL): 44.7 ± 1.39%
- inhibition at 5 µg/mL ([1]; 5 μg/mL): 64.7 ± 1.56%
- inhibition at 10 µg/mL ([1]; 10 μg/mL): 75.33 ± 0.55%
- Galactitol content in rat lens [4]: 448.81 ± 3.38 μg/lens wet weight (g)
- inhibition at 5 µg/mL [4]: 46.8%
- Rat erythrocyte galactitol content [5]: 16.15 ± 0.39 µM
- inhibition at 5 µg/mL [5]: 30.5%

SMILES: O=C(O)C=Cc1ccc(O)cc1 [Compound 3, p-hydroxycinnamic acid]
- IC50 ([1]; read-out: rAR IC50): 8.35 ± 0.51 µM
- IC50 [7]: 5.94 ± 1.01 µM
- Inhibition (%) of ABTS•+ ([7]; 1.67 μg/mL): 47.60 ± 1.35%
- Inhibition (%) of ABTS•+ ([7]; 3.33 μg/mL): 59.65 ± 1.39%
- Inhibition (%) of ABTS•+ ([7]; 8.33 μg/mL): 74.05 ± 0.69%

SMILES: O=C(/C=C/c1ccc(O)c(O)c1)O[C@H](Cc1ccc(O)c(O)c1)C(=O)O [Compound 4, rosmarinic acid]
- IC50 ([1]; rAR IC50): 2.77 ± 0.48 µM
- IC50 [2]: 18.6 ± 0.4 µM
- inhibition type of rhAR [3]: noncompetitive
- Galactitol content in rat lens [4]: 532.38 ± 6.56 μg/lens wet weight (g)
- inhibition at 5 µg/mL [4]: ~36.9%
- Rat erythrocyte galactitol content [5]: 15.05 ± 0.30 µM
- inhibition at 5 µg/mL [5]: ~35.5%
- Inhibition (%) of AGEs ([6]; 19.61 μg/mL): 20.67 ± 0.37%
- IC50 [7]: 8.79 ± 0.1 µM
- Inhibition (%) of ABTS•+ ([7]; 0.33 μg/mL): 9.93 ± 0.27%
- Inhibition (%) of ABTS•+ ([7]; 1.67 μg/mL): 36.50 ± 0.78%
- Inhibition (%) of ABTS•+ ([7]; 3.33 μg/mL): 78.40 ± 1.17%

- IC50 [7]: 12 ± 0.24 µM
SMILES: O=C(O)/C=C/c1ccc(O)c(O)c1 [Compound 1, caffeic acid]
- Inhibition (%) of AGEs ([6]; 19.61 μg/mL): 9.33 ± 0.27%
- Inhibition (%) of ABTS•+ ([7]; 0.33 μg/mL): 11.33 ± 0.31%
- Inhibition (%) of ABTS•+ ([7]; 1.67 μg/mL): 34.65 ± 1.03%
- Inhibition (%) of ABTS•+ ([7]; 3.33 μg/mL): 75.14 ± 1.08%

- ABTS•+ IC50 [7]: 3.84 ± 0.10 µg/mL
- IC50 [7]: 15.3 ± 0.4 µM
SMILES: Cc1c(C)c2c(c(C)c1O)CCC(C)(C(=O)O)O2 (stereo not shown) [Trolox, reference compound]
- Inhibition (%) of ABTS•+ ([7]; 1.67 μg/mL): 21.76 ± 1.15%
- Inhibition (%) of ABTS•+ ([7]; 3.33 μg/mL): 45.48 ± 1.20%
- Inhibition (%) of ABTS•+ ([7]; 16.67 μg/mL): 99.44 ± 0.20%

- IC50 [6]: 304 ± 3.41 µM
- IC50 [7]: 12.4 ± 0.33 µM
SMILES: O=Cc1ccc(O)c(O)c1 [Compound 6, protocatechualdehyde]
- Inhibition (%) of AGEs ([6]; 19.61 μg/mL): 9.85 ± 0.16%
- Inhibition (%) of AGEs ([6]; 49.02 μg/mL): 63.45 ± 1.16%
- Inhibition (%) of AGEs ([6]; 98.04 μg/mL): 88.69 ± 0.56%
- Inhibition (%) of ABTS•+ ([7]; 0.33 μg/mL): 13.73 ± 0.37%
- Inhibition (%) of ABTS•+ ([7]; 1.67 μg/mL): 52.73 ± 0.93%
- Inhibition (%) of ABTS•+ ([7]; 3.33 μg/mL): 92.80 ± 1.50%

SMILES: N=C(N)NN [Aminoguanidine, reference compound]
- AGEs IC50 [6]: 143.92 ± 0.62 µg/mL
- IC50 [6]: 1945 ± 8.39 µM
- Inhibition (%) of AGEs ([6]; 19.61 μg/mL): 3.96 ± 0.06%
- Inhibition (%) of AGEs ([6]; 98.04 μg/mL): 37.39 ± 0.52%
- Inhibition (%) of AGEs ([6]; 196.08 μg/mL): 66.85 ± 0.13%
